Data from patent US20050267166A1, “Continuous dosing regimen” (priority 2004, published 2005).

What was measured:
[1] = biological target: biotinylated bovine brain tubulin
[2] = system: M5076 transplantable murine reticulum cell sarcoma; conditions: for antitumor activity in the M5076 model: in words; for ILS: comparator drugs, dose not given
[3] = system: NCI-H460 human non-small cell lung carcinoma; test: NCI-H460 xenograft model; format: in vivo; conditions: in words
Source text: NCI-H460 is a human non-small cell lung carcinoma derived cell line. It is MDR negative, has wild type p53, and contains an oncogenic K-ras mutation.

[4] = system: HCT-15 human colon carcinoma; test: HCT-15 human colon carcinoma xenografts; format: in vivo; conditions: in words
Source text: HCT-15 is a human colon carcinoma derived cell line. It is MDR positive, and expresses both mutant p53 and oncogenic K-ras. The HCT-15 cell line has one of the highest levels of mdr-1/P-glycoprotein expression of cells from the NCI tumor cell line panel.
Effect of Cytotoxic Agents on the Growth of HCT-15 Human Colon Carcinoma Xenografts

C26 colon tumors = C26 colon tumors grown in the flank of CDF-1 mice; format: in vivo; conditions: comparator, regimen not given

| SMILES | Ki ([1]; competition of [3H]colchicine) [µM] | displacement of [3H]colchicine from the colchicine site of tubulin β-subunits ([1]; in words) | antitumor activity in the M5076 model [2] | efficacy in the NCI-H460 xenograft model [3] | efficacy in HCT-15 xenografts [4] | efficacy against C26 colon tumors (C26 colon tumors) | ILS [2] [%] |
| --- | --- | --- | --- | --- | --- | --- | --- |
| CC[C@]1(O)C[C@@H]2CN(CCc3c([nH]c4ccccc34)[C@@](C(=O)OC)(c3cc4c(cc3OC)N(C)[C@H]3[C@@](O)(C(=O)OC)[C@H](OC(C)=O)[C@]5(CC)C=CCN6CC[C@]43[C@@H]65)C2)C1 [vinblastine] | > 100 | do not displace |  |  |  |  |  |
| CC(=O)O[C@H]1C(=O)[C@@]2(C)[C@H]([C@H](OC(=O)c3ccccc3)[C@]3(O)C[C@H](OC(=O)[C@H](O)[C@@H](NC(=O)c4ccccc4)c4ccccc4)C(C)=C1C3(C)C)[C@]1(OC(C)=O)CO[C@@H]1C[C@@H]2O [paclitaxel, reference compound] |  |  | resistant | lacked activity | not efficacious | not efficacious |  |
| CC[C@]1(O)C[C@H]2CN(CCc3c([nH]c4ccccc34)[C@@](C(=O)OC)(c3cc4c(cc3OC)N(C=O)[C@H]3[C@@](O)(C(=O)OC)[C@H](OC(C)=O)[C@]5(CC)C=CCN6CC[C@]43[C@@H]65)C2)C1 [vincristine, reference compound] |  |  | only marginally active | lacked activity | not efficacious |  | 17 |
| O=P1(N(CCCl)CCCl)NCCCO1 (stereo not shown) [cyclophosphamide] |  |  | sensitive |  |  |  |  |
| COc1cccc2c1C(=O)c1c(O)c3c(c(O)c1C2=O)C[C@@](O)(C(=O)CO)C[C@@H]3O[C@H]1C[C@H](N)[C@H](O)[C@H](C)O1 [doxorubicin] |  |  | only marginally active |  |  |  | 13 |
